Laboratory results published in PubChem BioAssay AID256 (DTP/NCI, 2004).
Where “and” joins values, the source holds several entries; their conditions need not be identical. Equal values may be shown once. Toxic doses and inconclusive results are not listed. The calls were made as follows: active = survival T/C of 150% or more; inactive = T/C below 125% in these data.

System: CD2F1 mice, L1210 leukemia ip, survival T/C
Assay: NCI In Vivo Anticancer Drug Screen. Data for tumor model L1210 Leukemia (intraperitoneal) in CD2F1 (CDF1) mice
Details: endpoint: mean survival time, higher = longer survival
Procedure, shortened: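 Compound-dosed mice with transplantable tumor versus matched vehicle controls; endpoint ratio T/C reported.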

[1] = dose: 100.0 mg/kg/injection, schedule: Q01DX009 (ip), vehicle: saline with Tween-80
[2] = dose: 100.0 mg/kg/injection, schedule: Q04DX003 (ip), vehicle: saline
[3] = dose: 200.0 mg/kg/injection, schedule: Q01DX009 (ip), vehicle: saline with Tween-80
[4] = dose: 200.0 mg/kg/injection, schedule: Q04DX003 (ip), vehicle: saline
[5] = dose: 400.0 mg/kg/injection, schedule: Q01DX009 (ip), vehicle: saline with Tween-80
[6] = dose: 400.0 mg/kg/injection, schedule: Q04DX003 (ip), vehicle: saline
[7] = dose: 100.0 mg/kg/injection, schedule: Q04DX003 (ip), vehicle: saline with Tween-80
[8] = dose: 200.0 mg/kg/injection, schedule: Q04DX003 (ip), vehicle: saline with Tween-80
[9] = dose: 400.0 mg/kg/injection, schedule: Q04DX003 (ip), vehicle: saline with Tween-80
[10] = dose: 6.25 mg/kg/injection, schedule: Q01DX009 (ip), vehicle: saline with Tween-80
[11] = dose: 12.5 mg/kg/injection, schedule: Q01DX009 (ip), vehicle: saline with Tween-80
[12] = dose: 12.5 mg/kg/injection, schedule: Q04DX003 (ip), vehicle: saline with Tween-80
[13] = dose: 25.0 mg/kg/injection, schedule: Q01DX009 (ip), vehicle: saline with Tween-80
[14] = dose: 25.0 mg/kg/injection, schedule: Q04DX003 (ip), vehicle: saline with Tween-80
[15] = dose: 50.0 mg/kg/injection, schedule: Q01DX001 (ip), vehicle: saline with Tween-80
[16] = dose: 200.0 mg/kg/injection, schedule: Q01DX001 (ip), vehicle: saline with Tween-80
[17] = dose: 400.0 mg/kg/injection, schedule: Q01DX001 (ip), vehicle: saline with Tween-80
[18] = dose: 50.0 mg/kg/injection, schedule: Q01DX009 (ip), vehicle: saline with Tween-80
[19] = dose: 100.0 mg/kg/injection, schedule: Q01DX001 (ip), vehicle: saline with Tween-80

Measured: T/C

O=[N+]([O-])c1ccc(S(=O)(=O)F)c(Cl)c1
inactive: [1] 100 % of control | [2] 100 % of control | [3] 100 % of control | [4] 101 % of control | [5] 100 % of control | [6] 101 % of control

C[N+](C)(C)c1ccc(Cc2ccc([N+](C)(C)C)cc2)cc1
inactive: dose: 6.3 micrograms/kg/injection, schedule: Q04DX002 (ip), vehicle: saline with Tween-80 101 % of control | dose: 12.5 micrograms/kg/injection, schedule: Q04DX002 (ip), vehicle: saline with Tween-80 108 % of control | dose: 25.0 micrograms/kg/injection, schedule: Q04DX002 (ip), vehicle: saline with Tween-80 101 % of control

CC1(C)COC(=O)N1
inactive: dose: 75.0 mg/kg/injection, schedule: Q01DX009 (ip), vehicle: saline with Tween-80 104 % of control | [2] 108 % of control | dose: 150.0 mg/kg/injection, schedule: Q01DX009 (ip), vehicle: saline with Tween-80 101 % of control

COc1ccc(N2CC=C(c3ccccc3)OP2(=O)N(CCCl)CCCl)cc1 (stereo not drawn)
inactive: dose: 31.25 mg/kg/injection, schedule: Q01DX001 (ip), vehicle: saline 102 % of control | dose: 62.5 mg/kg/injection, schedule: Q01DX001 (ip), vehicle: saline 100 % of control | dose: 125.0 mg/kg/injection, schedule: Q01DX001 (ip), vehicle: saline 100 % of control | dose: 250.0 mg/kg/injection, schedule: Q01DX001 (ip), vehicle: saline 100 % of control | dose: 500.0 mg/kg/injection, schedule: Q01DX001 (ip), vehicle: saline 100 % of control

[NH2-].[NH2-].[NH2-].[NH2-].[NH2-].[NH2-].[Ru+6]
inactive: dose: 12.5 mg/kg/injection, schedule: Q04DX002 (ip), vehicle: saline 86 % of control

C=C(CC(=O)O)C(=O)O
inactive: [7] 93 % of control | [8] 98 % of control

CC1(C(=O)O)CCCC1C(CCC(=O)O)C(=O)O (stereo not drawn)
inactive: [2] 98 % of control | [4] 96 % of control | [6] 96 % of control

C1COC2(CCC3C2C2CCC4(OCCO4)C32)O1 (stereo not drawn)
inactive: [7] 103 % of control | [8] 101 % of control | [9] 116 % of control

NC(=O)c1cc2c(N)[nH]nc2nc1N
inactive: [10] 97 % of control | dose: 6.25 mg/kg/injection, schedule: Q04DX003 (ip), vehicle: saline with Tween-80 94 % of control | [11] 103 % of control | [12] 97 % of control | [13] 92 % of control | [14] 92 % of control

CCOC(=O)C1=C(C)/C(=C/c2[n-]c(C)c(C(=O)OCC)c2C)N=C1C.CCOC(=O)C1=C(C)/C(=C/c2[n-]c(C)c(C(=O)OCC)c2C)N=C1C.[Co+2]
inactive: [15] 91 % of control | [16] 87 % of control | [17] 91 % of control

C#CC[N+](CCO)(CCO)CCCCCCCCCCCCCCCCCC
inactive: dose: 12.5 mg/kg/injection, schedule: Q04DX002 (ip), vehicle: saline with Tween-80 101 % of control | dose: 25.0 mg/kg/injection, schedule: Q04DX002 (ip), vehicle: saline with Tween-80 101 % of control | dose: 50.0 mg/kg/injection, schedule: Q04DX002 (ip), vehicle: saline with Tween-80 101 % of control

O=C(O)c1cc2c(Cl)cccc2[nH]1
inactive: [13] 109 % of control | [18] 98 % of control | [1] 94 % of control | [7] 106 % of control

CCOC(=O)CC(=O)c1ccc(C(=O)CC(=O)OCC)cc1
inactive: [19] 89 % of control | [16] 89 % of control | [17] 89 % of control

CN(C)C1CCCC(OC(=O)c2ccccc2)C1 (stereo not drawn)
inactive: dose: 25.0 mg/kg/injection, schedule: Q04DX002 (ip), vehicle: saline 97 % of control | dose: 50.0 mg/kg/injection, schedule: Q04DX002 (ip), vehicle: saline 105 % of control | dose: 100.0 mg/kg/injection, schedule: Q01DX001 (ip), vehicle: saline 101 % of control | dose: 100.0 mg/kg/injection, schedule: Q04DX002 (ip), vehicle: saline 94 % of control | dose: 200.0 mg/kg/injection, schedule: Q01DX001 (ip), vehicle: saline 100 % of control

O=C1/C(=C\c2ccccc2)Oc2cc(O)c(O)cc21
inactive: dose: 25.0 mg/kg/injection, schedule: Q01DX001 (ip), vehicle: saline with Tween-80 100 % of control | [15] 104 % of control | [19] 100 % of control

O=C(O)c1ccc(Cl)c(N=C/C=C/c2ccccc2)c1
inactive: dose: 75.0 mg/kg/injection, schedule: Q04DX003 (ip), vehicle: saline 97 % of control | dose: 150.0 mg/kg/injection, schedule: Q04DX003 (ip), vehicle: saline 100 % of control | dose: 300.0 mg/kg/injection, schedule: Q04DX003 (ip), vehicle: saline 100 % of control

CC1COC(Nc2cccc3c2CCCC3)=N1 (stereo not drawn)
inactive: [12] 97 % of control | [14] 97 % of control | dose: 50.0 mg/kg/injection, schedule: Q04DX003 (ip), vehicle: saline with Tween-80 97 % of control

O=C1C2CC3C1C1(Cl)C(Cl)C4(Cl)C2C3C1(Cl)C4(Cl)Cl (stereo not drawn)
inactive: dose: 9.5 mg/kg/injection, schedule: Q01DX001 (ip), vehicle: other 98 % of control | dose: 19.0 mg/kg/injection, schedule: Q01DX001 (ip), vehicle: other 104 % of control | dose: 38.0 mg/kg/injection, schedule: Q01DX001 (ip), vehicle: other 103 % of control | dose: 75.0 mg/kg/injection, schedule: Q01DX001 (ip), vehicle: other 104 % of control

OC1CCCC2CCCNC12 (stereo not drawn)
inactive: dose: 1.25 mg/kg/injection, schedule: Q01DX009 (ip), vehicle: Klucel (hydroxypropylcellulose) (HPC) 109 % of control | dose: 3.12 mg/kg/injection, schedule: Q01DX009 (ip), vehicle: saline with Tween-80 98 % of control | [10] 88 % of control | [11] 103 % of control | dose: 25.0 mg/kg/injection, schedule: Q01DX009 (ip), vehicle: Klucel (hydroxypropylcellulose) (HPC) 107 % of control | [13] 104 % of control | dose: 50.0 mg/kg/injection, schedule: Q01DX009 (ip), vehicle: Klucel (hydroxypropylcellulose) (HPC) 98 % of control | [18] 110 % of control

Cn1c(C[N+](C)(C)C)cc2ccccc21
inactive: dose: 50.0 mg/kg/injection, schedule: Q01DX009 (ip), vehicle: saline 90 % of control | dose: 100.0 mg/kg/injection, schedule: Q01DX009 (ip), vehicle: saline 93 % of control

OCCc1ccccc1
inactive: dose: 50.0 mg/kg/injection, schedule: Q03HX024 (ip), vehicle: saline with Tween-80 102 % of control | dose: 100.0 mg/kg/injection, schedule: Q03HX024 (ip), vehicle: saline with Tween-80 100 % of control | [7] 96 % of control | dose: 125.0 mg/kg/injection, schedule: Q01DX009 (ip), vehicle: saline 105 % of control | dose: 200.0 mg/kg/injection, schedule: Q03HX024 (ip), vehicle: saline with Tween-80 100 % of control | [8] 93 % of control | dose: 250.0 mg/kg/injection, schedule: Q01DX009 (ip), vehicle: saline 102 % of control | [9] 93 % of control | dose: 500.0 mg/kg/injection, schedule: Q01DX001 (ip), vehicle: saline with Tween-80 106 % of control | dose: 500.0 mg/kg/injection, schedule: Q01DX009 (ip), vehicle: saline 103 % of control

O=C(C=C(C(F)(F)F)C(F)(F)F)c1cccc(S(=O)(=O)F)c1
inactive: [19] 107 % of control

O/N=C(/CC(O)(c1ccccc1)c1ccccc1)c1ccccc1
inactive: dose: 75.0 mg/kg/injection, schedule: Q01DX001 (ip), vehicle: saline 98 % of control | dose: 150.0 mg/kg/injection, schedule: Q01DX001 (ip), vehicle: saline 103 % of control | dose: 300.0 mg/kg/injection, schedule: Q01DX001 (ip), vehicle: saline 95 % of control

COC(=O)C1=CCC[N+](C)(C)C1
inactive: dose: 1.56 mg/kg/injection, schedule: Q04DX002 (ip), vehicle: saline 93 % of control | dose: 3.13 mg/kg/injection, schedule: Q04DX002 (ip), vehicle: saline 93 % of control | dose: 6.25 mg/kg/injection, schedule: Q04DX002 (ip), vehicle: saline 93 % of control and 105 % of control

Nc1nc(N)c(N=Nc2ccc(SCC(=O)O)cc2)c(=O)[nH]1
inactive: [1] 100 % of control | [3] 94 % of control | [5] 101 % of control
